Laboratory results taken from ChEMBL document CHEMBL3860075, “Synthesis, characterization, and evaluation of (E)-methyl 2-((2-oxonaphthalen-1(2H)-ylidene)methylamino)acetate as a biological agent and an anion sensor” (Bioorg Med Chem, 2016).
Converted amounts (≈) assume the structure as drawn. The source made the active and inactive calls. The rule behind the calls is not given here.

How the values were obtained:
[1] = test system: Pseudomonas aeruginosa; assay: Antimicrobial activity against Pseudomonas aeruginosa ATCC 254992 after 24 hrs by broth microdilution assay; type: functional; conditions: ATCC 254992, 24 h
[2] = test system: Salmonella typhimurium; assay: Genotoxicity in Salmonella typhimurium TA98 at 0.5 to 500 ppm per plate in absence of S9 fraction by Ames test; type: toxicity, organism-based; conditions: salmonella enterica subsp. enterica serovar typhimurium
[3] = test system: Candida albicans; assay: Antimicrobial activity against Candida albicans ATCC 60193 after 24 hrs by broth microdilution assay; type: functional; conditions: ATCC 60193, 24 h
[4] = test system: Salmonella typhimurium; assay: Genotoxicity in Salmonella typhimurium TA100 at 0.5 to 500 ppm per plate in absence of S9 fraction by Ames test; type: toxicity, organism-based; conditions: salmonella enterica subsp. enterica serovar typhimurium
[5] = test system: Bacillus spizizenii; assay: Antimicrobial activity against Bacillus subtilis ATCC 6633 after 24 hrs by broth microdilution assay; type: functional; conditions: ATCC 6633, 24 h
[6] = Binding affinity to 1 equiv tetrabutylamonium fluoride anion assessed as disappearance of peak by 1H NMR method
[7] = species: Bos taurus; assay: Binding affinity to calf thymus DNA assessed as formation of intense band at 260 nanometer at 3 10^-5M after 5 mins by UV-visible spectroscopic analysis
[8] = Binding affinity to 0.5 equiv tetrabutylamonium fluoride anion assessed as decrease in N-H proton intensity by 1H NMR method
[9] = test system: Proteus vulgaris; assay: Antimicrobial activity against Proteus vulgaris ATCC 13315 after 24 hrs by broth microdilution assay; type: functional; conditions: ATCC 13315, 24 h
[10] = test system: Candida tropicalis; assay: Antimicrobial activity against Candida tropicalis ATCC 13803 after 24 hrs by broth microdilution assay; type: functional; conditions: ATCC 13803, 24 h
[11] = Binding affinity to cyanide anion assessed as compound color change from colorless to yellow at compound:anion ratio of 1:1 under UV light by colorimetric method
[12] = test system: Escherichia coli; assay: Antimicrobial activity against Escherichia coli ATCC 25922 after 24 hrs by broth microdilution assay; type: functional; conditions: ATCC 25922, 24 h
[13] = Binding affinity to cyanide anion assessed as compound color change from colorless to yellow at compound:anion ratio of 1:1 under natural light by colorimetric method
[14] = Binding affinity to cyanide anion assessed as disappearance of peak at 430 nanometer at 5 10^-6M by UV-visible spectroscopic analysis
[15] = test system: Escherichia coli; assay: Induction of hydrolytic cleavage of Escherichia coli supercoiled pBR322 DNA assessed as increase in nicked circular form at 200 uM after 3 hrs by agarose gel electrophoretic analysis
[16] = species: Bos taurus; assay: Binding affinity to calf thymus DNA assessed as bathochromism at 3 10^-5M after 5 mins by UV-visible spectroscopic analysis
[17] = test system: Escherichia coli; assay: Antimicrobial activity against Escherichia coli ATCC 35218 after 24 hrs by broth microdilution assay; type: functional; conditions: ATCC 35218, 24 h
[18] = test system: Enterococcus faecalis; assay: Antimicrobial activity against Enterococcus faecalis ATCC 29212 after 24 hrs by broth microdilution assay; type: functional; conditions: ATCC 29212, 24 h
[19] = test system: Staphylococcus aureus; assay: Antimicrobial activity against Staphylococcus aureus ATCC 25923 after 24 hrs by broth microdilution assay; type: functional; conditions: ATCC 25923, 24 h
[20] = test system: Escherichia coli; assay: Induction of oxidative cleavage of Escherichia coli supercoiled pBR322 DNA assessed as increase in nicked circular form at 25 uM after 3 hrs in presence of H2O2 by agarose gel electrophoretic analysis

Structure (SMILES) | MIC [1] [µg/mL] | Activity [2] | MIC [3] [µg/mL] | Activity [4] [%] | MIC [5] [µg/mL] | Activity [6] | Activity [7] | Activity [8] | MIC [9] [µg/mL] | MIC [10] [µg/mL] | Activity [11] | MIC [12] [µg/mL] | Activity [13] | Activity [14] | Activity [15] | Activity [16] [nm] | MIC [17] [µg/mL] | MIC [18] [µg/mL] | MIC [19] [µg/mL] | Activity [20]
COC(=O)CN/C=C1/C(=O)C=Cc2ccccc21 | 128 (≈ 526 µM) | Non-Toxic | 128 (≈ 526 µM) | > 40 | 128 (≈ 526 µM) | Active | Active | Active | 256 (≈ 1050 µM) | 128 (≈ 526 µM) | Active | 256 (≈ 1050 µM) | Active | Active | Active | 1 to 4 | 256 (≈ 1050 µM) | 256 (≈ 1050 µM) | 128 (≈ 526 µM) | Active
CC1(C)S[C@@H]2[C@H](NC(=O)[C@H](N)c3ccccc3)C(=O)N2[C@H]1C(=O)O [AMPICILLIN] | 2 (≈ 5.72 µM) |  |  |  | 1 (≈ 2.86 µM) |  |  |  | 2 (≈ 5.72 µM) |  |  |  |  |  |  |  |  | 2 (≈ 5.72 µM) |  | 
OC(Cn1cncn1)(Cn1cncn1)c1ccc(F)cc1F [FLUCONAZOLE] |  |  |  |  |  |  |  |  |  | 32 (≈ 104 µM) |  |  |  |  |  |  |  |  |  | 
